Patent US20050049273A1, “Acridone derivatives as anti-herpesvirus agents” (priority 2003, published 2005)

How the values were obtained:
[1] = tested on: Epstein-Barr Virus (EBV) early antigen; conditions: published work; cited from earlier work
HSV-2 [2] = test: HSV-2 viral yield-reduction assay in Vero cells; assay type: cell-based, HSV-2 (strain 186); conditions: Human alphaherpesvirus 2, Vero, read-out: ED50 HSV-2
Method: (§1) Three types of antiviral assay were used for HSV studies. For plaque-elimination, Vero cells (70000 per cm^2) were infected with 50-100 PFU for 30 minutes with occasional agitation. The inoculate was replaced with medium containing 1% (v/v) fetal calf serum and supplemented with test agents as indicated (see below). After two days of culture, cells were processed using crystal violet staining and plaques were scored by visual examination (FIG. 3). For examination of anti-HSV activity in parallel cultures during biochemical experiments, the progeny virus obtained from cells and from the culture medium at 23 hours post-infection was determined by limiting dilution on Vero cells (FIG. 5A). Macroscopic viral plaques were scored after two days of incubation in medium containing 1% (w/v) carboxymethylcellulose and 0.5% (v/v) fetal calf serum. For ED50 measurements, the concentration of compound that reduced a single-cycle of viral yield by 50% relative to the control and under the specified condition was interpolated from dose-response graphs (FIG. 4, Table 1). Over the course of ten independent experiments, the mean cell-associated viral yield was 180 PFU per cell (SD=80) and 10 PFU per cell (SD=5) for HSV-1 and HSV-2 respectively. The percent viral release (into the culture medium) was 16 (SD=7) and 0.9 (SD=0.6) for HSV-1 and HSV-2 respectively. These virologic parameters were independent of viral load and serum concentration.

HSV-1 = HSV-1 viral yield-reduction assay in Vero cells; assay type: cell-based, HSV-1 (KOS); conditions: Human alphaherpesvirus 1, Vero, read-out: ED50 HSV-1
Method: as §1

Vero = Vero cell growth inhibition (Sulforhodamine B protein-dye binding); assay type: cell-based, African green monkey
Method: (§2) The effect of compounds on host cell replication (CC50), was measured using Sulforhodamine B-staining and the spectrophotometric method originally developed for the NCIs's in vitro anti-cancer drug screening program (P. Skehan et al., J. Natl. Cancer. Inst. 82, 1107-1112 (1990)). The CC50 value is the concentration of compound that inhibited actively replicating cells by 50% of control respectively after two days of continuous treatment.

[3] = as above; assay type: cell-based, African green monkey; conditions: African green monkey; cell growth inhibition, two days of continuous treatment; read-out: CC50 Vero
Method: as §2

HCMV [4] = test: HCMV plaque-elimination assay in HEL cells; assay type: cell-based, HCMV (Towne)
Method: Virus and cell growth inhibition assays. Established virus culture techniques were used (E.-S. Huang, and T Kowalnick, Diagnosis of human cytomegalovirus infection: laboratory approaches, in Molecular Aspects of Human Cytomegalovirus Diseases (Becker,Y., Daria, G., and Huang, E.-S. eds.), Springer-Verlag, Berlin, pp. 225-255 (1993); Akanitapichat et al., Antiviral Research 45: 123-134 (2000)) but with the following modifications. For the HCMV plaque-elimination assay, HEL cells were plated in standard medium at 60,000 per cm^2 and infected the following day with 50-100 PFU HCMV for 90 minutes with occasional agitation. The inoculate was replaced with maintenance medium containing 5% (v/v) fetal calf serum and test agents as indicated (see below). After an additional 6-10 days of culture, cells were fixed with formal saline (10% formalin in phosphate-buffered saline; PBS), stained with 0.1% (w/v) toluidine blue in PBS and plaques were scored using an inverted light microscope at 40x magnification (FIGS. 2A and 3). For ED50 determination, the value was interpolated from dose-response data and is the concentration of compound that reduced plaque formation by 50% relative to control under the specified condition.

HCMV [5] = test: HCMV cytopathogenicity (CPE) reduction assay in HEL cells; assay type: cell-based, HCMV (Towne)
Text: (§3) To examine whether pre-treatment of cells influenced anti-HCMV activity of 1-hydroxy-3,7-dimethoxyacridone (2), a cytopathogenicity (CPE) reduction assay was used. The protocol was like the plaque-elimination assay except HEL cells were replicated in test compound (3-12 days or from 1-4 passages) prior to infection, cultures were infected with 500-1000 PFU HCMV and after five days, cells were stained with 0.8% (w/v) crystal violet in 50% ethanol in order to achieve contrast for photography.

HEL Cells = test: HEL cells replicated in presence of compound for 12 days (morphology, replication rate); assay type: cell-based, human; conditions: 0.5 or five micromolar for 12 days (four passages)
Text: HEL Cells were replicated in the presence of either 0.5 or five micromolar compound 2 for 12 days (four passages) then they were compared to untreated HEL cells as a host for HCMV replication in the presence or absence of the drug. […] Cultures were infected with ten-times the viral load used for plaque assay and were fixed, stained and photographed after seven days of infection (panel B). A detailed method is described in the examples below. The horizontal rows labeled as HEL, HEL (0.5) and HEL (5.0) represent cells cultured in the absence or presence of 0.5 and 5 micromolar 2 respectively. Labeled columns indicate mock-infected (M), infected (I) and treated after viral infection with the same two concentrations of the compound.
as §3

HEL = HEL cell growth inhibition (Sulforhodamine B protein-dye binding); assay type: cell-based, human; conditions: at 50 μM
Method: as §2

[6] = as above; assay type: cell-based, human; conditions: human; cell growth inhibition, two days of continuous treatment
Method: as §2

[7] = tested on: an assortment of human tumor cell lines; test: Replication of human tumor cell lines; assay type: cell-based; conditions: at 50 μM, data not shown
Method: as §2

HSV-2 [8] = test: HSV-2 plaque-elimination assay in Vero cells; assay type: cell-based, HSV-2 (strain 186); conditions: 100 μM, data not shown
Method: as §1

Molecule	concentration blocking activation of EBV early antigen [1]	EC50 (HSV-2 [2]) [µM]	EC50 (HSV-1) [µM]	inhibition of Vero cell replication (Vero; at 50 μM)	percent inhibition observed at the highest concentration tested, Vero growth (Vero; number in parenthesis, highest concentration tested) [%]	CC50 at 2 days [3] [µM]	EC50 (HCMV [4]; Human betaherpesvirus 5, HEL, read-out: ED50 HCMV) [µM]	selectivity as anti-HCMV agent (HCMV [4]; cell replication vs HCMV ED50)	amelioration of HCMV cytopathogenicity after pre-treatment (HCMV [5]; HEL cells cultured 12 days in 0.5 μM before infection)	protective effect against HCMV cytopathogenicity after pre-treatment (HCMV [5]; HEL cells cultured 12 days in 5 μM before infection)	protection against HCMV cytopathogenicity (HCMV [5]; higher viral loads, with or without pretreatment of HEL cells)	effect on cell morphology and cell viability (HEL Cells)	inhibition of HEL cell replication (HEL)	CC50 at 2 days [6] [µM]	inhibition of human tumor cell line replication [7]	effect on HSV at highest concentration tested (HSV-2 [8])
5-hydroxynoracronicine	submicromolar concentration	–	–	–	–	–	–	–	–	–	–	–	–	–	–	–
COc1cc(O)c2c(=O)c3cc(OC)ccc3[nH]c2c1 [Compound 2, 3,7-dimethoxy-1-hydroxy-acridone]	–	> 50	> 50	inactive	7	> 50	1.4	greater than 35 fold	some amelioration of HCMV cytopathogenicity	even apparent in the absence of sustained treatment post-infection	did not protect against HCMV cytopathogenicity unless HEL cells were pretreated prior to viral infection	no effect on cell morphology or cell viability	inactive	> 50	inactive	without effect on HSV
